Structures are written as SMILES.

`CCc1ccc(C(O)COc2ccc(C=O)cc2)nc1` (stereo not shown) [Compound 9a, 4-[2-(5-Ethyl-pyridin-2-yl)-2-hydroxy-ethoxy]-benzaldehyde] showed a melting point of 83 °C.

Values taken from patent US7863300B2, “Process to prepare pioglitazone via several novel intermediates” (Cadila Healthcare Limited, priority 2002, dated 2011).
